± gives the standard deviation of the averaged measurements.
How the values were obtained:
Assay in all cases: level (log10 ratio to DMSO vehicle control); higher = higher biomarker level / cell amount than vehicle control
Conditions in all cases: in DMSO
[1] = compound: C=CC(=O)OCC(F)(F)C(F)(F)C(F)(F)C(F)(F)C(F)(F)C(F)(F)C(F)(F)F [1H,1H-Perfluorooctyl acrylate]
Protocol: (§1)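 BioMAP Diversity Plus panel of 12 human primary cell co-culture systems (3C, 4H, LPS, SAg, BT, BF4T, BE3C, CASM3C, HDF3CGF, KF3CT, MyoF, Mphg). Compounds were added 1 h before stimulation and left for 24 h (MyoF 48 h; BT 72 h for soluble read-outs or 6 d for IgG). Biomarkers were read by ELISA, cytotoxicity by SRB, PBMC viability and proliferation by Alamar Blue. Each well value was divided by the mean of 8 DMSO control wells on the same plate and log10 transformed; duplicate blinded samples were tested at 4 concentrations.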

Perfluoroheptanoic acid = compound: O=C(O)C(F)(F)C(F)(F)C(F)(F)C(F)(F)C(F)(F)C(F)(F)F [Perfluoroheptanoic acid]
Protocol: as §1

[2] = compound: OCC(F)(F)OC(F)(F)C(F)(F)OC(F)(F)CO [1H,1H,8H,8H-Perfluoro-3,6-dioxaoctane-1,8-diol]
Protocol: as §1

Perfluorobutanoic acid = compound: O=C(O)C(F)(F)C(F)(F)C(F)(F)F [Perfluorobutanoic acid]
Protocol: as §1

Perfluoropropanoic acid = compound: O=C(O)C(F)(F)C(F)(F)F [Perfluoropropanoic acid]
Protocol: as §1

[3] = compound: O=C(O)C(F)(F)OC(F)(F)C(F)(F)OC(F)(F)C(=O)O [Perfluoro-3,6-dioxaoctane-1,8-dioic acid]
Protocol: as §1

[4] = compound: FC(F)(F)C(F)(F)C(F)(F)C(F)(F)C(F)(F)C(F)(F)C(F)(F)C(F)(F)CCS [2-(Perfluorooctyl)ethanthiol]
Protocol: as §1

Row | Test System | level (log10) ([1]; 6700 nM) | level (log10) ([1]; 20000 nM) | level (log10) ([1]; 60000 nM) | level (log10) (Perfluoroheptanoic acid; 6700 nM) | level (log10) (Perfluoroheptanoic acid; 20000 nM) | level (log10) (Perfluoroheptanoic acid; 60000 nM) | level (log10) ([2]; 6700 nM) | level (log10) ([2]; 20000 nM) | level (log10) ([2]; 60000 nM) | level (log10) (Perfluorobutanoic acid; 6700 nM) | level (log10) (Perfluorobutanoic acid; 20000 nM) | level (log10) (Perfluorobutanoic acid; 60000 nM) | level (log10) (Perfluoropropanoic acid; 6700 nM) | level (log10) (Perfluoropropanoic acid; 20000 nM) | level (log10) (Perfluoropropanoic acid; 60000 nM) | level (log10) ([3]; 6700 nM) | level (log10) ([3]; 20000 nM) | level (log10) ([3]; 60000 nM) | level (log10) ([4]; 6700 nM) | level (log10) ([4]; 20000 nM)
1 | 3C:CCL2/MCP-1 | -0.0085 ± 0.00071 | -0.009 ± 0.023 | 0.017 ± 0.028 | 0.0015 ± 0.015 | -0.009 ± 0.013 | 0.032 ± 0.045 | 0.0005 ± 0.018 | 0.009 ± 0.0028 | 0.0145 ± 0.05 | 0.007 ± 0.0071 | 0.0075 ± 0.011 | 0.028 ± 0.025 | -0.041 ± 0.048 | -0.0145 ± 0.049 | 0.0435 ± 0.073 | 0.002 ± 0.016 | -0.007 ± 0.023 | 0.01 ± 0.03 | 0.0045 ± 0.035 | 0.0135 ± 0.0078
2 | lMphg:CD69 | -0.0255 ± 0.012 | -0.016 ± 0.033 | -0.0135 ± 0.013 | -0.019 ± 0.038 | -0.021 ± 0.041 | -0.0205 ± 0.064 | -0.0305 ± 0.0064 | -0.041 ± 0.025 | -0.0145 ± 0.13 | 0.0505 ± 0.066 | 0.0455 ± 0.0021 | 0.087 ± 0.1 | 0.0105 ± 0.059 | -0.022 ± 0.025 | 0.0045 ± 0.029 | -0.0565 ± 0.015 | 0 ± 0.054 | -0.024 ± 0.098 | -0.0425 ± 0.039 | -0.069 ± 0.045
3 | lMphg:CCL2/MCP-1 | -0.0065 ± 0.039 | -0.016 ± 0.0057 | 0.002 ± 0.03 | -0.0365 ± 0.021 | -0.019 ± 0.0042 | 0.027 ± 0.023 | -0.0115 ± 0.0035 | -0.0145 ± 0.012 | 0.0155 ± 0.012 | -0.0205 ± 0.021 | -0.0165 ± 0.018 | 0.0135 ± 0.022 | -0.021 ± 0.017 | -0.0045 ± 0.0064 | 0.002 ± 0.013 | -0.0165 ± 0.021 | -0.019 ± 0.027 | -0.008 ± 0.0057 | -0.0125 ± 0.0078 | -0.003 ± 0.02
4 | 3C:CD142/Tissue Factor | 0.001 ± 0.0057 | 0 ± 0.0014 | -0.0165 ± 0.0078 | -0.0065 ± 0.037 | -0.004 ± 0.027 | 0.0285 ± 0.039 | 0.0175 ± 0.0064 | 0.011 ± 0.021 | -0.0045 ± 0.0035 | 0.011 ± 0.0042 | 0.0085 ± 0.021 | 0.0035 ± 0.043 | -0.008 ± 0.018 | -0.015 ± 0.0085 | 0.0065 ± 0.0035 | -0.004 ± 0.042 | -0.0155 ± 0.013 | -0.0025 ± 0.059 | -0.0345 ± 0.022 | -0.0335 ± 0.015
5 | BE3C:tPA | 0.005 ± 0.0028 | 0.0125 ± 0.00071 | 0.0605 ± 0.022 | -0.0205 ± 0.026 | -0.0255 ± 0.0078 | 0.017 ± 0.031 | -0.014 ± 0.021 | -0.0255 ± 0.03 | -0.0225 ± 0.00071 | -0.025 ± 0.025 | -0.025 ± 0.04 | -0.037 ± 0.0099 | -0.016 ± 0.0042 | -0.028 ± 0.028 | 0 ± 0.0014 | -0.014 ± 0.018 | -0.0135 ± 0.0035 | -0.0015 ± 0.0021 | 0.0105 ± 0.0064 | 0.0165 ± 0.016
6 | MyoF:MMP-1 | -0.0135 ± 0.019 | -0.016 | 0.0275 ± 0.005 | -0.0175 ± 0.0064 | -0.0245 ± 0.011 | 0.021 ± 0.061 | -0.022 ± 0.028 | -0.0115 ± 0.011 | 0.024 ± 0.058 | -0.027 ± 0.0028 | -0.0135 ± 0.016 | -0.0005 ± 0.04 | -0.0675 ± 0.11 | -0.0565 ± 0.06 | 0.05 ± 0.095 | -0.0065 ± 0.0092 | -0.0155 ± 0.019 | 0.0225 ± 0.067 | -0.0265 ± 0.0092 | -0.0545 ± 0.037
7 | HDF3CGF:CXCL10/IP-10 | -0.001 ± 0.0057 | -0.0455 ± 0.022 | -0.047 | -0.0295 ± 0.046 | -0.015 ± 0.016 | -0.0295 ± 0.0092 | 0.004 ± 0.0014 | -0.0085 ± 0.00071 | -0.011 ± 0.021 | -0.002 ± 0.0057 | 0.0035 ± 0.005 | -0.0025 ± 0.013 | -0.005 ± 0.0085 | -0.001 ± 0.0028 | 0.02 ± 0.0071 | 0.0105 ± 0.023 | -0.004 ± 0.011 | -0.0085 ± 0.023 | -0.027 ± 0.025 | -0.0495 ± 0.005
8 | KF3CT:IL-1alpha | -0.0075 ± 0.022 | -0.001 ± 0.0071 | -0.007 ± 0.0028 | -0.007 ± 0.018 | 0.016 ± 0.014 | -0.0115 ± 0.0064 | -0.029 ± 0.045 | -0.013 ± 0.014 | 0.013 ± 0.023 | -0.0085 ± 0.012 | 0.006 ± 0.062 | 0.019 ± 0.058 | -0.013 ± 0.05 | -0.0035 ± 0.052 | -0.04 ± 0.038 | 0.0075 ± 0.00071 | -0.0065 ± 0.013 | 0.02 ± 0.013 | -0.0065 ± 0.026 | -0.009 ± 0.0042
9 | KF3CT:PAI-I | -0.0075 ± 0.00071 | -0.01 ± 0.013 | -0.0135 ± 0.018 | -0.043 ± 0.016 | -0.0355 ± 0.012 | -0.013 ± 0.068 | -0.015 ± 0.0028 | -0.0095 ± 0.0078 | -0.002 ± 0.0099 | -0.0055 ± 0.0078 | -0.019 ± 0.0014 | 0 | 0.0095 ± 0.07 | 0.021 ± 0.0071 | -0.006 ± 0.1 | -0.0145 ± 0.025 | -0.0125 ± 0.00071 | 0.003 ± 0.018 | -0.04 | -0.0425 ± 0.023
10 | MyoF:TIMP-1 | 0.0075 ± 0.012 | 0.037 ± 0.0014 | 0.0405 ± 0.005 | -0.011 ± 0.0042 | 0.0225 ± 0.0021 | 0.0515 ± 0.0064 | -0.0015 ± 0.036 | 0.038 ± 0.025 | 0.052 ± 0.03 | -0.039 ± 0.055 | -0.02 ± 0.02 | 0.0035 ± 0.0092 | 0.0645 ± 0.077 | 0.05 ± 0.047 | 0.0465 ± 0.12 | 0.0065 ± 0.056 | 0.02 ± 0.037 | 0.026 ± 0.0014 | -0.033 ± 0.014 | -0.0215 ± 0.005
11 | KF3CT:MMP-9 | -0.0245 ± 0.00071 | -0.0225 ± 0.019 | -0.014 ± 0.014 | -0.0065 ± 0.0078 | 0.0165 ± 0.026 | 0.059 ± 0.025 | -0.0005 ± 0.00071 | 0.0085 ± 0.011 | 0.0265 ± 0.0078 | -0.01 ± 0.021 | -0.0185 ± 0.019 | 0.0005 ± 0.013 | -0.0405 ± 0.012 | -0.053 ± 0.035 | -0.0105 ± 0.032 | -0.0105 ± 0.012 | 0 ± 0.0042 | 0.007 ± 0.0085 | -0.029 ± 0.035 | -0.0275 ± 0.037
12 | 3C:CD141/Thrombomodulin | -0.027 ± 0.017 | -0.023 ± 0.018 | -0.0455 ± 0.021 | 0.0185 ± 0.0035 | 0.0035 ± 0.00071 | 0.0205 ± 0.0021 | -0.003 ± 0.013 | -0.0075 ± 0.015 | 0.01 ± 0.0085 | -0.0095 ± 0.026 | -0.0105 ± 0.026 | -0.0105 ± 0.04 | -0.016 ± 0.031 | 0.011 ± 0.021 | 0.0155 ± 0.0035 | -0.0265 ± 0.036 | -0.0065 ± 0.023 | 0.0095 ± 0.028 | 0.0105 ± 0.0078 | -0.042 ± 0.05
13 | lMphg:sIL-10 | 0.018 ± 0.02 | -0.023 ± 0.05 | -0.0565 ± 0.042 | -0.017 ± 0.018 | 0.007 ± 0.027 | -0.0945 ± 0.032 | -0.0295 ± 0.022 | -0.0355 ± 0.13 | 0.0065 ± 0.00071 | 0.034 ± 0.013 | -0.005 ± 0.03 | -0.02 ± 0.037 | -0.0045 ± 0.016 | 0.008 ± 0.0099 | -0.042 ± 0.024 | -0.0425 ± 0.011 | -0.0615 ± 0.036 | -0.058 ± 0.055 | -0.122 ± 0.065 | 0.0325 ± 0.046
14 | HDF3CGF:CCL2/MCP-1 | -0.0055 ± 0.018 | -0.0235 ± 0.021 | -0.046 ± 0.03 | -0.0085 ± 0.0064 | 0.0135 ± 0.00071 | 0.0115 ± 0.016 | 0.0015 ± 0.0092 | 0.0025 ± 0.012 | 0.026 ± 0.047 | -0.008 ± 0.021 | 0.004 ± 0.014 | 0.017 ± 0.0014 | -0.022 ± 0.047 | -0.024 ± 0.04 | 0.017 ± 0.051 | 0 ± 0.016 | 0.005 ± 0.0071 | 0.0135 ± 0.016 | -0.0505 ± 0.03 | -0.077 ± 0.014
